Like-named read-outs stand apart in the source and are kept apart here.
Key:
[1] = tested on: Type 2 herpes simplex strain 3345; assay: Herpes simplex virus bioassay in Vero cells, inhibition of hsv2 (Example 2); format: cell-based; conditions: Human alphaherpesvirus 2, Vero
Experimental: . Culture and assay methods follow those described by Lennette and Schmidt (1979) for herpes simplex virus and Vero cells with minor modifications.
Type 1 herpes simplex strain HFEM is a derivative of the Rockerfeller strain HF (Wildy 1955), and Type 2 herpes simplex strain 3345, a penile isolate (Skinner et al 1977) were used as prototype strains. These prototypes were stored at −80° C. until needed.
African Green Monkey kidney cells (vero) were obtained from the National Institute of Biological Standards and Control UK and were used as the only cell line for all experiments in this example.
Cells and viruses were maintained on Glasgows modified medium supplemented with 10% foetal bovine serum.

[2] = tested on: type 2 herpes simplex virus strain 3345; assay: Inhibition of HSV2 replication in infected African green monkey kidney cells (Example 1, Table 1); format: cell-based; conditions: for inhibition of virus replication: Lithium 0 mN
Source text: Compositions were applied to African green monkey kidney and […] cells infected with type 2 herpes simplex virus strains 3345 and 180 at low, intermediate and high multiplicities of infection. MOI inhibition of virus replication was scored as follows: […]

SMILES: NS(=O)(=O)c1cc(C(=O)O)c(NCc2ccco2)cc1Cl [Frusemide, 4-chloro-N-furfuryl-5-sulfamoylanthranilic acid]
- inhibition at 1000 µg/mL ([1]; read-out: Inhibition of hsv2, Effect of frusemide alone, Multiplicity of infection High, frusemide (1 mg/ml)): 0%
- inhibition at 1000 µg/mL ([1]; read-out: Inhibition of hsv2, Effect of frusemide alone, Multiplicity of infection Low, frusemide (1 mg/ml)): 40%
- inhibition at 1000 µg/mL ([1]; read-out: Inhibition of hsv2, Effect of frusemide alone, Multiplicity of infection Medium, frusemide (1 mg/ml)): 40%
- inhibition of virus replication ([2]; HIGH MOI HSV2, Frusemide 0.5 mg/ml): − (No inhibition)
- inhibition of virus replication ([2]; HIGH MOI HSV2, Frusemide 1.0 mg/ml): − (No inhibition)
- inhibition of virus replication ([2]; HIGH MOI HSV2, Frusemide 2.0 mg/ml): − (No inhibition)
- inhibition at 500 µg/mL ([2]; Human alphaherpesvirus 2): 0%
- inhibition at 1000 µg/mL ([2]; Human alphaherpesvirus 2): 0%
- inhibition at 2000 µg/mL ([2]; Human alphaherpesvirus 2): 0%
- inhibition of virus replication ([2]; LOW MOI HSV2, Frusemide 0.5 mg/ml): − (No inhibition)
- inhibition of virus replication ([2]; LOW MOI HSV2, Frusemide 1.0 mg/ml): − (No inhibition)
- inhibition of virus replication ([2]; LOW MOI HSV2, Frusemide 2.0 mg/ml): − (No inhibition)
- inhibition of hsv2 replication ([2]; frusemide 2 mg/ml, all multiplicities of infection): no inhibition

From patent US20060029684A1, “Synergistic treatment of DNA viral infections” (Henderson Morley Research and Development Limited, priority 1999, published 2006)
